The values that follow come from PMC7657476, “An improved whole life cycle culture protocol for the hydrozoan genetic model Clytia hemisphaerica” (Biology Open, 2020).

This experiment deals with Clytia hemisphaerica planula larvae. The experiment is described as follows: Metamorphosis (settlement) induction of planula larvae by synthetic GLW-amide neuropeptides. Format: in vivo. Conditions: for Metamorphosis efficiency, Average: peptide concentration not given. On the procedure:
(1) Culture planula larvae in MFSW containing penicillin and streptomycin. (2) Wash the surface of large glass slides (75 mm×50 mm) with warm tap water (40–50°C) and dry. Place them in 100 mm diameter petri dishes. (3) Dilute GLW-amide peptide stock solution (1–5 mM in distilled water, stored at −20°C) just prior to use in MFSW (4 ml/large slide). Recommended final concentration for GLW-amide-6 is 0.5 µM. (4) Using a plastic transfer pipette, carefully pour 0.1 ml/cm^2 or more peptide-containing sea water over the glass slide (4 ml for large glass slides, Fig. S1F). (5) Transfer 2.5–3-day-old planulae using a glass pipette. Disperse them as the settlement starts quickly. (6) Cover the dish with a lid to minimize the water evaporation and keep the dish undisturbed. (7) Planula will be firmly settled in several hours after peptide treatment. Transfer slides to polyp tanks, not later than 16 h after induction. (8) Start to feed smashed Artemia once the primary polyps have extended tentacles and open mouths. (9) Once the colony contains multiple gastrozooids, it can be fed normally with live Artemia nauplii.
Metamorphosis of planula larvae was induced by transferring them onto glass slides covered with at least 0.1 ml/cm^2 of sea water containing synthetic neuropeptides (Fig. 2E). A selection of synthetic amidated peptides derived from the neuropeptide precursors Che-PP2 and Che-PP11 ([Takeda et al., 2018]) were tested as metamorphosis inducers (Table 2) on 3-day-old planula larvae obtained by crossing Z13 (male) and Z11 (female) strains. Planula attach firmly onto the slide within a few hours (Fig. 1C, left). Metamorphosis efficiency was measured by successful settlement on the slide at 12 h, as the timing of stalk extension is variable, from several hours to days.

Square brackets hold non-standard residues; d marks the D form. Ends that are not written are not given here. pGlu = O=C1CC[C@@H](C(=O)O)N1

Substance “GNPPGLW-NH2 [GLW-amide-2, synthetic GLW-amide neuropeptide from Clytia transcriptome (precursor PP11), previously used to trigger metamorphosis]” registered a Planula settlement efficiency (previous conditions, 1 µM peptide, variable (Fig. 7)) not below 40%.

In the case of “[pGlu]QQAPKGLW-NH2 [GLW-amide-6, synthetic GLW-amide neuropeptide derived from precursor Che-PP11]”, the “Planula settlement on the glass slide” value (0.3 µM peptide, settlement scored at 12 h, 5 repeats of 20 planulae (Fig. 7)) is recorded as “virtually all”. Moreover, the “Lowest concentration active in inducing metamorphosis” value (3-day-old planulae (Z13 x Z11) on glass slide in sea water containing peptide, settlement scored at 12 h, 5 repeats of 20 planulae (Fig. 7)) amounted to 0.3 µM. The Planula settlement efficiency (newly designed peptide, concentration not printed at this place (Fig. 7)) is listed as approximately 100%. In addition, the “Metamorphosis efficiency, Average” value is recorded as 96.5% (substrate agarose (2%), sample size 96–98, 4 repeats); 98.6% (substrate glass, sample size 90–99, 5 repeats); 99.9% (substrate plastic (polypropyrene), sample size 90–100, 5 repeats).
